Data on 20 compounds can be found in patent US12209087B2, “AKT1 modulators” (Alterome Therapeutics, Inc., priority 2022, dated 2025).

The target of the assay is T1, full length AKT E17K (Homo sapiens, UniProt P31749, E17K).
T1 construct: host or cells: HEK-293 (ATCC CRL-1573)
T1 sequence (P31749 whole entry E17K): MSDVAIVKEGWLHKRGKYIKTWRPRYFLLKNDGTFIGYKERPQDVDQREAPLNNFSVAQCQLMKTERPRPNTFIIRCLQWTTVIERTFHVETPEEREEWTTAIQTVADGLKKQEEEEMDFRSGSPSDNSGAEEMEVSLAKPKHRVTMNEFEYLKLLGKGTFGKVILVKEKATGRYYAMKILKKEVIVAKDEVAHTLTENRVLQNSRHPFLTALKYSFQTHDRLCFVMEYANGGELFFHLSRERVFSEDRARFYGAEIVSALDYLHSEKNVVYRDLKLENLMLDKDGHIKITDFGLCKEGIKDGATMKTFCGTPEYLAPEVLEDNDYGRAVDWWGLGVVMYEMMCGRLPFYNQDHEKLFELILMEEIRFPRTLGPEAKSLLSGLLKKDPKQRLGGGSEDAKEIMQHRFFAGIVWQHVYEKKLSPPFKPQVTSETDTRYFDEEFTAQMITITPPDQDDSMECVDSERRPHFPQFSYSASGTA
Briefly: NanoBRET Target Engagement (TE) Assay. Type of assay: cell-based. The conditions noted are these: competitive displacement of tracer in cells, read-out: AKT1 E17K IC50. The procedure, abridged: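 Compound and tracer incubated 2 h before luminescence at donor 450 nm and acceptor 600 nm, with extracellular signal inhibited. EC50 by sigmoidal variable-slope regression.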
A general note: In BRET a luciferase serves as donor, and the signal depends on an acceptor being close.
The term IC50 denotes the concentration that gives 50% inhibition. Turning to `N#Cc1nccc(N2CCC3(CC2)CN(Cc2ccc(-n4c(-c5cccnc5N)nc5ccc(-c6ccc(F)cc6)nc54)cc2)C3)n1` [Example 491, 4-(2-(4-(2-(2-Aminopyridin-3-yl)-5-(4-fluorophenyl)-3H-imidazo[4,5-b]pyridin-3-yl)benzyl)-2,7-diazaspiro[3.5]nonan-7-yl)pyrimidine-2-carbonitrile], the half-maximal inhibitory concentration (IC50) is less than 15 nM.

For `C[S+]([O-])c1ccc2nc(-c3cccnc3N)n(-c3ccc(CN4CCC(Nc5ccnc(C#N)n5)CC4)cc3)c2n1` (centres unmarked) [Example 492, 4-((1-(4-(2-(2-Aminopyridin-3-yl)-5-(methylsulfinyl)-3H-imidazo[4,5-b]pyridin-3-yl)benzyl)piperidin-4-yl)amino)pyrimidine-2-carbonitrile], the IC50 was 60 to 600 nM.

In the case of `Cc1cc(C)c2nc(-c3cccnc3N)n(-c3ccc(CN4CCC(Nc5ccnc(C#N)n5)CC4)cc3)c2n1` [Example 493, 4-((1-(4-(2-(2-Aminopyridin-3-yl)-5,7-dimethyl-3H-imidazo[4,5-b]pyridin-3-yl)benzyl)piperidin-4-yl)amino)pyrimidine-2-carbonitrile], the IC50 was less than 15 nM.

Regarding `N#Cc1nccc(NC2CCN(Cc3ccc(-n4c(-c5cccnc5N)nc5c(O)ncnc54)cc3)CC2)n1` [Example 494, 4-((1-(4-(8-(2-aminopyridin-3-yl)-6-hydroxy-9H-purin-9-yl)benzyl)piperidin-4-yl)amino)pyrimidine-2-carbonitrile], the IC50 is 600 to 10000 nM.

`N#Cc1nccc(NC2CCN(Cc3ccc(-n4c(-c5cccnc5N)nc5ccc(-c6ccccn6)nc54)cc3)CC2)n1` [Example 495, 4-((1-(4-(2-(2-Aminopyridin-3-yl)-5-(pyridin-2-yl)-3H-imidazo[4,5-b]pyridin-3-yl)benzyl)piperidin-4-yl)amino)pyrimidine-2-carbonitrile]: the half-maximal inhibitory concentration (IC50) is less than 15 nM.

For the compound `N#Cc1nccc(NC2CCN(Cc3ccc(-n4c(-c5cccnc5N)nc5ccc(O)nc54)cc3)CC2)n1` [Example 496, 4-((1-(4-(2-(2-Aminopyridin-3-yl)-5-hydroxy-3H-imidazo[4,5-b]pyridin-3-yl)benzyl)piperidin-4-yl)amino)pyrimidine-2-carbonitrile], the half-maximal inhibitory concentration (IC50) lay in the range of 15 to 60 nM.

For the compound `N#Cc1nccc(NC2CCN(Cc3ccc(-n4c(-c5cccnc5N)nc5ccc(N)nc54)cc3)CC2)n1` [Example 497, 4-((1-(4-(5-Amino-2-(2-aminopyridin-3-yl)-3H-imidazo[4,5-b]pyridin-3-yl)benzyl)piperidin-4-yl)amino)pyrimidine-2-carbonitrile], the IC50 was in the range of 15 to 60 nM.

On to `N#Cc1nccc(NC2CCN(Cc3ccc(-n4c(-c5cccnc5N)nc5ccc(-c6ccc(F)cc6Cl)nc54)cc3)CC2)n1` [Example 498, 4-((1-(4-(2-(2-Aminopyridin-3-yl)-5-(2-chloro-4-fluorophenyl)-3H-imidazo[4,5-b]pyridin-3-yl)benzyl)piperidin-4-yl)amino)pyrimidine-2-carbonitrile], for which the IC50 is 15 to 60 nM.

In the case of `Cc1cc2nc(-c3cccnc3N)n(-c3ccc(CN4CCC(Nc5ccnc(C#N)n5)CC4)cc3)c2nc1-c1ccc(F)cc1` [Example 499, 4-((1-(4-(2-(2-aminopyridin-3-yl)-5-(4-fluorophenyl)-6-methyl-3H-imidazo[4,5-b]pyridin-3-yl)benzyl)piperidin-4-yl)amino)pyrimidine-2-carbonitrile], the half-maximal inhibitory concentration (IC50) was less than 15 nM.

Turning to `N#Cc1ccc2nc(-c3cccnc3N)n(-c3ccc(CN4CCC(Nc5ccnc(C#N)n5)CC4)cc3)c2c1` [Example 500, 2-(2-Aminopyridin-3-yl)-1-(4-((4-((2-cyanopyrimidin-4-yl)amino)piperidin-1-yl)methyl)phenyl)-1H-benzo[d]imidazole-6-carbonitrile], the IC50 was less than 15 nM.

In the case of `N#Cc1ccc2c(c1)nc(-c1cccnc1N)n2-c1ccc(CN2CCC(Nc3ccnc(C#N)n3)CC2)cc1` [Example 501, 2-(2-Aminopyridin-3-yl)-1-(4-((4-((2-cyanopyrimidin-4-yl)amino)piperidin-1-yl)methyl)phenyl)-1H-benzo[d]imidazole-5-carbonitrile], the IC50 fell in the range of 15 to 60 nM.

For the compound `[2H]C([2H])([2H])N(c1ccnc(C#N)n1)C1CCN(C([2H])([2H])c2ccc(-n3c(-c4cccnc4N)nc4cccnc43)cc2)CC1` [Example 502, 4-((1-((4-(2-(2-Aminopyridin-3-yl)-3H-imidazo[4,5-b]pyridin-3-yl)phenyl)methyl-d2)piperidin-4-yl)(methyl-d3)amino)pyrimidine-2-carbonitrile], the half-inhibitory concentration (IC50) is 15 to 60 nM.

Regarding `[2H]C1(Nc2ccnc(C#N)n2)CCN(Cc2ccc(-n3c(-c4cccnc4N)nc4cccnc43)cc2)CC1` [Example 503, 4-((1-(4-(2-(2-Aminopyridin-3-yl)-3H-imidazo[4,5-b]pyridin-3-yl)benzyl)piperidin-4-yl-4-d)amino)pyrimidine-2-carbonitrile], the IC50 was 15 to 60 nM.

Regarding `[2H]C([2H])(c1ccc(-n2c(-c3cccnc3N)nc3cc(C)c(C)nc32)cc1)N1CCC(Nc2ccnc(C#N)n2)CC1` [Example 504, 4-((1-((4-(2-(2-Aminopyridin-3-yl)-5,6-dimethyl-3H-imidazo[4,5-b]pyridin-3-yl)phenyl)methyl-d2)piperidin-4-yl)amino)pyrimidine-2-carbonitrile], the IC50 is less than 15 nM.

Regarding `N#Cc1nccc(NC2CCN(Cc3ccc(-n4c(-c5cccnc5N)nc5cncnc54)cc3)CC2)n1` [Example 505, 4-((1-(4-(8-(2-Aminopyridin-3-yl)-9H-purin-9-yl)benzyl)piperidin-4-yl)amino)pyrimidine-2-carbonitrile], the concentration for half-maximal inhibition (IC50) fell in the range of 60 to 600 nM.

Regarding `N#Cc1nccc(NC2CCN(Cc3ccc(-n4c(-c5cccnc5N)nc5ccc(CO)nc54)cc3)CC2)n1` [Example 508, 4-((1-(4-(2-(2-Aminopyridin-3-yl)-5-(hydroxymethyl)-3H-imidazo[4,5-b]pyridin-3-yl)benzyl)piperidin-4-yl)amino)pyrimidine-2-carbonitrile], the concentration for half-maximal inhibition (IC50) was 15 to 60 nM.

In the case of `N#Cc1nccc(NC2CCN(Cc3ccc(-n4c(-c5cccnc5N)nc5ccc(CF)nc54)cc3)CC2)n1` [Example 509, 4-((1-(4-(2-(2-Aminopyridin-3-yl)-5-(fluoromethyl)-3H-imidazo[4,5-b]pyridin-3-yl)benzyl)piperidin-4-yl)amino)pyrimidine-2-carbonitrile], the concentration for half-maximal inhibition (IC50) was less than 15 nM.

Take `N#Cc1nccc(NC2CCN(Cc3ccc(-n4c(-c5cccnc5N)nc5ccc(N6CCCC6)nc54)cc3)CC2)n1` [Example 510, 4-((1-(4-(2-(2-Aminopyridin-3-yl)-5-(pyrrolidin-1-yl)-3H-imidazo[4,5-b]pyridin-3-yl)benzyl)piperidin-4-yl)amino)pyrimidine-2-carbonitrile]: the IC50 was less than 15 nM.

Regarding `COc1cc(-c2ccc3nc(-c4cccnc4N)n(-c4ccc(CN5CCC(Nc6ccnc(C#N)n6)CC5)cc4)c3n2)ccn1` [Example 511, 4-((1-(4-(2-(2-Aminopyridin-3-yl)-5-(2-methoxypyridin-4-yl)-3H-imidazo[4,5-b]pyridin-3-yl)benzyl)piperidin-4-yl)amino)pyrimidine-2-carbonitrile], the IC50 is less than 15 nM.

For the compound `COc1cncc(-c2ccc3nc(-c4cccnc4N)n(-c4ccc(CN5CCC(Nc6ccnc(C#N)n6)CC5)cc4)c3n2)c1` [Example 512, 4-((1-(4-(2-(2-Aminopyridin-3-yl)-5-(5-methoxypyridin-3-yl)-3H-imidazo[4,5-b]pyridin-3-yl)benzyl)piperidin-4-yl)amino)pyrimidine-2-carbonitrile], the concentration for half-maximal inhibition (IC50) is less than 15 nM.
